Test results reported in patent publication US20230107642A1 (Erasca, Inc., priority 2020, published 2023).

Each molecule was assayed against T1, Cys12 of the KRAS 4B G12C protein (Homo sapiens, UniProt P01116, G12C) (assay: In vitro covalent adduct formation (CAF) assay, LC-MS intact mass). Conditions: 10 uM compound, 60 min.
T1 construct: This protein contained 188 amino acids in total, including an N-terminal 6-Histidine tag; made in house; host or cells: E. coli BL21
Format: binding
Procedure, shortened: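 Percent covalent modification from intact-mass LC-MS, by relative free versus adducted protein (adducts within 1 Da of expected mass). Reaction: 10 μM compound with 5 μM E. coli-expressed, GDP-exchanged KRAS 4B G12C in TBS pH 7.4, 4% DMSO, 1 h at 22° C.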

Compound	% CAF 10 uM @ 60 min
C=CC(=O)N1CCN(c2nc(=O)n3c4c(c(-c5cc(Cl)c(F)cc5F)c(C(F)(F)F)cc24)SC[C@@H]3CN2C[C@@H]3C[C@H]2CO3)CC1 (atropisomer, axis not shown) [Example 1342, (3S,10S)-3-(((1S,4S)-2-oxa-5-azabicyclo[2.2.1]heptan-5-yl)methyl)-7-(4-acryloylpiperazin-1-yl)-10-(5-chloro-2,4-difluorophenyl)-9-(trifluoromethyl)-2,3-dihydro-5H-[1,4]thiazino[2,3,4-ij]quinazolin-5-one]	44.1%
C=CC(=O)N1[C@H](C)CN(c2nc(=O)n3c4c(c(-c5ccc(F)cc5F)c(C(F)(F)F)cc24)SC[C@@H]3CN2CCN(C3CC3)CC2)C[C@@H]1C (atropisomer, axis not shown) [Example 1346, (3S,10R)-7-((3S,5R)-4-acryloyl-3,5-dimethylpiperazin-1-yl)-3-((4-cyclopropylpiperazin-1-yl)methyl)-10-(2,4-difluorophenyl)-9-(trifluoromethyl)-2,3-dihydro-5H-[1,4]thiazino[2,3,4-ij]quinazolin-5-one]	96.9%
C=CC(=O)N1[C@H](C)CN(c2nc(=O)n3c4c(c(-c5ccc(F)cc5F)c(C(F)(F)F)cc24)SC[C@@H]3CN2CCN(C3CC3)CC2)C[C@@H]1C (atropisomer, axis not shown) [Example 1347, (3S,10S)-7-((3S,5R)-4-acryloyl-3,5-dimethylpiperazin-1-yl)-3-((4-cyclopropylpiperazin-1-yl)methyl)-10-(2,4-difluorophenyl)-9-(trifluoromethyl)-2,3-dihydro-5H-[1,4]thiazino[2,3,4-ij]quinazolin-5-one]	89.7%
C=CC(=O)N1[C@H](C)CN(c2nc(=O)n3c4c(c(-c5cc(Cl)c(F)cc5F)c(C(F)(F)F)cc24)SC[C@@H]3CN2CCN(C3CC3)CC2)C[C@@H]1C (atropisomer, axis not shown) [Example 1348, (3S,10R)-7-((3S,5R)-4-acryloyl-3,5-dimethylpiperazin-1-yl)-10-(5-chloro-2,4-difluorophenyl)-3-((4-cyclopropylpiperazin-1-yl)methyl)-9-(trifluoromethyl)-2,3-dihydro-5H-[1,4]thiazino[2,3,4-ij]quinazolin-5-one]	94.4%
C=CC(=O)N1[C@H](C)CN(c2nc(=O)n3c4c(c(-c5cc(Cl)c(F)cc5F)c(C(F)(F)F)cc24)SC[C@@H]3CN2CCN(C3CC3)CC2)C[C@@H]1C (atropisomer, axis not shown) [Example 1349, (3S,10S)-7-((3S,5R)-4-acryloyl-3,5-dimethylpiperazin-1-yl)-10-(5-chloro-2,4-difluorophenyl)-3-((4-cyclopropylpiperazin-1-yl)methyl)-9-(trifluoromethyl)-2,3-dihydro-5H-[1,4]thiazino[2,3,4-ij]quinazolin-5-one]	86.9%
C=CC(=O)N1CCN(c2nc(=O)n3c4c(c(-c5cc(Cl)c(F)cc5F)c(C(F)(F)F)cc24)SC[C@@H]3CN2CCN(C3CC3)CC2)CC1 (atropisomer, axis not shown) [Example 1355, (3S,10R)-7-(4-acryloylpiperazin-1-yl)-10-(5-chloro-2,4-difluorophenyl)-3-((4-cyclopropylpiperazin-1-yl)methyl)-9-(trifluoromethyl)-2,3-dihydro-5H-[1,4]thiazino[2,3,4-ij]quinazolin-5-one]	99.2%
C=CC(=O)N1CCN(c2nc(=O)n3c4c(c(-c5cc(Cl)c(F)cc5F)c(C(F)(F)F)cc24)SC[C@@H]3CN2CCN(C3CC3)CC2)CC1 (atropisomer, axis not shown) [Example 1356, (3S,10S)-7-(4-acryloylpiperazin-1-yl)-10-(5-chloro-2,4-difluorophenyl)-3-((4-cyclopropylpiperazin-1-yl)methyl)-9-(trifluoromethyl)-2,3-dihydro-5H-[1,4]thiazino[2,3,4-ij]quinazolin-5-one]	92.8%
C=CC(=O)N1[C@H](C)CN(c2nc(=O)n3c4c(c(-c5cc(Cl)c(F)cc5F)c(C(F)(F)F)cc24)SCC2(COC2)C3)C[C@@H]1C (atropisomer, axis not shown) [Example 1361a, (R)-8′-((3S,5R)-4-acryloyl-3,5-dimethylpiperazin-1-yl)-11′-(5-chloro-2,4-difluorophenyl)-10′-(trifluoromethyl)-2′H,4′H,6′H-spiro[oxetane-3,3′-[1,4]thiazepino[2,3,4-ij]quinazolin]-6′-one]	93.3%
C=CC(=O)N1[C@H](C)CN(c2nc(=O)n3c4c(c(-c5cc(Cl)c(F)cc5F)c(C(F)(F)F)cc24)SCC2(COC2)C3)C[C@@H]1C (atropisomer, axis not shown) [Example 1361b]	71.4%
C=CC(=O)N1CCN(c2nc(=O)n3c4c(c(-c5cc(Cl)c(F)cc5F)c(C(F)(F)F)cc24)SC[C@@H]3COCOC)CC1 (atropisomer, axis not shown) [Example 1364]	98%
C=CC(=O)N1CCN(c2nc(=O)n3c4c(c(-c5cc(Cl)c(F)cc5F)c(C(F)(F)F)cc24)SC[C@@H]3COCOC)CC1 (atropisomer, axis not shown) [Example 1365]	83.7%
C=CC(=O)N1[C@H](C)CN(c2nc(=O)n3c4c(c(-c5ccc(F)c6cnn(C)c56)c(C(F)(F)F)cc24)SC[C@@H]3COC)C[C@@H]1C (atropisomer, axis not shown) [Example 1366a, (3S,10S)-7-((3S,5R)-4-acryloyl-3,5-dimethylpiperazin-1-yl)-10-(4-fluoro-1-methyl-1H-indazol-7-yl)-3-(methoxymethyl)-9-(trifluoromethyl)-2,3-dihydro-5H-[1,4]thiazino[2,3,4-ij]quinazolin-5-one]	46.8%
C=CC(=O)N1CCN(c2nc(=O)n3c4c(c(-c5ccc(F)cc5F)c(C(F)(F)F)cc24)SC[C@@H]3COCOC)CC1 (atropisomer, axis not shown) [Example 1367, (3S,10R)-7-(4-acryloylpiperazin-1-yl)-10-(2,4-difluorophenyl)-3-((methoxymethoxy)methyl)-9-(trifluoromethyl)-2,3-dihydro-5H-[1,4]thiazino[2,3,4-ij]quinazolin-5-one]	92.4%
C=CC(=O)N1[C@H](C)CN(c2nc(=O)n3c4c(c(-c5cc(Cl)c(F)cc5F)c(C(F)(F)F)cc24)SC[C@@H]3COCOC)C[C@@H]1C (atropisomer, axis not shown) [Example 1369]	64.6%
C=CC(=O)N1[C@H](C)CN(c2nc(=O)n3c4c(c(-c5cc(Cl)c(F)cc5F)c(C(F)(F)F)cc24)SC[C@@H]3COCOC)C[C@@H]1C (atropisomer, axis not shown) [Example 1370, (3S,10R)-7-((3S,5R)-4-acryloyl-3,5-dimethylpiperazin-1-yl)-10-(5-chloro-2,4-difluorophenyl)-3-((methoxymethoxy)methyl)-9-(trifluoromethyl)-2,3-dihydro-5H-[1,4]thiazino[2,3,4-ij]quinazolin-5-one]	94.4%
C=CC(=O)N1[C@H](C)CN(c2nc(=O)n3c4c(c(-c5cc(Cl)c(F)cc5F)c(C(F)(F)F)cc24)SC[C@@H]3CN(C)C)C[C@@H]1C (atropisomer, axis not shown) [Example 1375, (3S,10R)-7-((3S,5R)-4-acryloyl-3,5-dimethylpiperazin-1-yl)-10-(5-chloro-2,4-difluorophenyl)-3-((dimethylamino)methyl)-9-(trifluoromethyl)-2,3-dihydro-5H-[1,4]thiazino[2,3,4-ij]quinazolin-5-one]	93.9%
C=CC(=O)N1[C@H](C)CN(c2nc(=O)n3c4c(c(-c5cc(Cl)c(F)cc5F)c(C(F)(F)F)cc24)SC[C@@H]3CN(C)C)C[C@@H]1C (atropisomer, axis not shown) [Example 1376, (3S,10S)-7-((3S,5R)-4-acryloyl-3,5-dimethylpiperazin-1-yl)-10-(5-chloro-2,4-difluorophenyl)-3-((dimethylamino)methyl)-9-(trifluoromethyl)-2,3-dihydro-5H-[1,4]thiazino[2,3,4-ij]quinazolin-5-one]	83.9%
C=CC(=O)N1C[C@H](C)N(c2nc(=O)n3c4c(c(-c5cccc6cnn(C)c56)c(C(F)(F)F)cc24)SC[C@@H]3CN2CCN(CC)CC2)C[C@H]1C (atropisomer, axis not shown) [Example 1381, (3S,10R)-7-((2S,5R)-4-acryloyl-2,5-dimethylpiperazin-1-yl)-3-((4-ethylpiperazin-1-yl)methyl)-10-(1-methyl-1H-indazol-7-yl)-9-(trifluoromethyl)-2,3-dihydro-5H-[1,4]thiazino[2,3,4-ij]quinazolin-5-one]	19.1%
C=CC(=O)N1C[C@H](C)N(c2nc(=O)n3c4c(c(-c5cccc6cnn(C)c56)c(C(F)(F)F)cc24)SC[C@@H]3CN2CCN(CC)CC2)C[C@H]1C (atropisomer, axis not shown) [Example 1382, (3S,10S)-7-((2S,5R)-4-acryloyl-2,5-dimethylpiperazin-1-yl)-3-((4-ethylpiperazin-1-yl)methyl)-10-(1-methyl-1H-indazol-7-yl)-9-(trifluoromethyl)-2,3-dihydro-5H-[1,4]thiazino[2,3,4-ij]quinazolin-5-one]	49.1%
C=CC(=O)N1C[C@H](C)N(c2nc(=O)n3c4c(c(-c5cccc6cnn(C)c56)c(C(F)(F)F)cc24)SC[C@@H]3CN2CCN(C3CC3)CC2)C[C@H]1C (atropisomer, axis not shown) [Example 1388, (3S,10S)-7-((2S,5R)-4-acryloyl-2,5-dimethylpiperazin-1-yl)-3-((4-cyclopropylpiperazin-1-yl)methyl)-10-(1-methyl-1H-indazol-7-yl)-9-(trifluoromethyl)-2,3-dihydro-5H-[1,4]thiazino[2,3,4-ij]quinazolin-5-one]	95.3%
